Assay results published in ChEMBL document CHEMBL5579826, “Discovery of autophagy-tethering compounds as potent NLRP3 degraders for IBD Immunotherapy” (Eur J Med Chem, 2024).

Key:
[1] = molecular target: Interleukin-1 beta (Homo sapiens) (UniProt P01584); assay: Inhibition of IL-1beta in PMA-differentiated human THP-1 cells at 200 nM co-incubated with compound and LPS for 24 hrs by ELISA relative to control; type: cell-based
[2] = molecular target: Interleukin-1 beta (Homo sapiens) (UniProt P01584); assay: Inhibition of IL-1beta in PMA-differentiated human THP-1 cells at 100 nM co-incubated with compound and LPS for 24 hrs by ELISA relative to control; type: cell-based

Sequence of Interleukin-1 beta (Homo sapiens) (P01584 117-269 limits assumed): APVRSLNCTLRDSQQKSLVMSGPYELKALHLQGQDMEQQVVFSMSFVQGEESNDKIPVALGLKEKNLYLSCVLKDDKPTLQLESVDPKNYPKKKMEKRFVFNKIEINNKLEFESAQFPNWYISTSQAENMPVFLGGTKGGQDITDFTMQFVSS

| SMILES | inhibition [1] [%] | inhibition [2] [%] |
| --- | --- | --- |
| COc1ccc(Cl)cc1C(=O)NCCc1ccc(S(=O)(=O)NCCCCCN2C(=O)/C(=C/c3cc(Br)c(O)c(OC)c3)c3cc(Br)ccc32)cc1 | 36.2 | 50.4 |
| O=C(Nc1c2c(cc3c1CCC3)CCC2)NS(=O)(=O)c1ccc(OCCCCCCCCCCCCN2C(=O)/C(=C/c3cc(Br)c(O)c(Br)c3)c3cc(I)ccc32)cc1 | 7.9 | 40.1 |
| O=C(Nc1c2c(cc3c1CCC3)CCC2)NS(=O)(=O)c1ccc(OCCOCCN2C(=O)/C(=C/c3cc(Br)c(O)c(Br)c3)c3cc(Br)ccc32)cc1 | 67.3 | 20.5 |
| COc1cc(/C=C2/C(=O)N(CCCCCCCCCCCCOc3ccc(S(=O)(=O)NC(=O)Nc4c5c(cc6c4CCC6)CCC5)cc3)c3ccc(Br)cc32)cc(Br)c1O | 35.3 | 20.4 |
| COc1cc(/C=C2/C(=O)N(CCCCCCCCOc3ccc(S(=O)(=O)NC(=O)Nc4c5c(cc6c4CCC6)CCC5)cc3)c3ccc(Br)cc32)cc(Br)c1O | 19.2 | 27.7 |
| COc1ccc(Cl)cc1C(=O)NCCc1ccc(S(=O)(=O)NCCOCCOCCN2C(=O)/C(=C/c3cc(Br)c(O)c(OC)c3)c3cc(Br)ccc32)cc1 | 43.1 | 11 |
| COc1ccc(Cl)cc1C(=O)NCCc1ccc(S(=O)(=O)NCCCCCCCCN2C(=O)/C(=C/c3cc(Br)c(O)c(OC)c3)c3cc(Br)ccc32)cc1 | 37.9 | -7.2 |
| COc1ccc(Cl)cc1C(=O)NCCc1ccc(S(=O)(=O)NCCOCCN2C(=O)/C(=C/c3cc(Br)c(O)c(OC)c3)c3cc(Br)ccc32)cc1 | 23.1 | 39 |
| COc1cc(/C=C2/C(=O)N(CCOCCOc3ccc(S(=O)(=O)NC(=O)Nc4c5c(cc6c4CCC6)CCC5)cc3)c3ccc(Br)cc32)cc(Br)c1O | 59.2 | 35.6 |
| O=C(Nc1c2c(cc3c1CCC3)CCC2)NS(=O)(=O)c1ccc(OCCCCCCCCN2C(=O)/C(=C/c3cc(Br)c(O)c(Br)c3)c3cc(Br)ccc32)cc1 | 39.6 | -5.3 |
| COc1cc(/C=C2/C(=O)N(CCOCCOCCOCCOc3ccc(S(=O)(=O)NC(=O)Nc4c5c(cc6c4CCC6)CCC5)cc3)c3ccc(Br)cc32)cc(Br)c1O | 32.7 | 57.6 |
| COc1cc(/C=C2/C(=O)N(CCCCOc3ccc(S(=O)(=O)NC(=O)Nc4c5c(cc6c4CCC6)CCC5)cc3)c3ccc(Br)cc32)cc(Br)c1O | 40.8 | 19.2 |
